Legend:
[1] = tested on: alloxan-damaged RINm5f cells; test: MTT cell viability assay, protection against alloxan-induced islet β-cell damage (with Calcusyn combination index); type: cell-based, rat; conditions: for combination index CI value with alloxan: agent 0.5, 1, 5, 10 mM with alloxan 15 mM, Calcusyn, >1.0 = antagonistic (cytoprotective); for cell survival rate of alloxan-damaged pancreatic β-cells, single agent: alloxan 15 mM, agent 0.5, 1, 5, 10 mM, pretreated 1 h, 24 h, significant vs AXN group at 5 mM (P<0.05) and 10 mM (P<0.01)
Description: RINm5F cells were cultured to the logarithmic growth phase, inoculated in 96-well culture plates at a cell density of 5×10^4/ml, cultured for 24 hours, and then drugs were added. The experiment was divided into a negative control group, an alloxan damage group (AXN group) and a protection group. Both the AXN group and the protection group were added with alloxan at a final concentration of 15 mM, and the protection group was added with different concentrations of GX999 and GX008A, pretreated for 1h. The experiment set up 4 duplicate wells and the experiment was repeated three times.
RINm5F cells were cultured to the logarithmic growth phase, inoculated in 96-well culture plates at a cell density of 5×10^4/ml, cultured for 24 hours, and then drugs were added. The experiment was divided into a negative control group, an alloxan damage group (AXN group) and a protection group. Both the AXN group and the protection group were added with alloxan at a final concentration of 15 mM, and the protection group was added with different concentrations of GX999 and GX008A, pretreated for 1h. The experiment set up 4 duplicate wells and they were placed in a carbon dioxide incubator for regular culture for 24 hours. MTT 20 ul (5 mg/mL) was added to each well and incubated for 4 hours. Then the culture medium was discarded, 150 ul DMSO was added to each well and shaken for 10 minutes, and the OD value of the optical density was detected at 490 nm with a microplate reader.
According to the inhibition rates of different concentrations of drugs alone and in combination, the Calcusyn software was used to analyze and process data such as the inhibition rates of GX999 and GX008A alone at different concentrations and the inhibition rates in combination at corresponding concentrations to obtain the combination index (CI) value. According to the definition of combination index, the synergistic effect of drugs was judged, and the synergistic effect is indicated by less than 1.0, and the antagonistic effect is indicated by greater than 1.0.
The experiment set up a negative control group and a damage group with different concentrations of alloxan (concentrations of 4 mM, 7 mM, 10 mM, 15 mM, 20 mM), after 24 hours of exposure, then 4 duplicate wells were set up, and the MTT method was used to detect the cell survival rate. […] Compared with the blank control group, the P value was less than 0.01, and the difference was statistically significant.

[2] = tested on: 3T3L1 preadipocytes; test: MTT cell viability assay, proliferation of 3T3L1 preadipocytes (with Calcusyn combination index); type: cell-based; conditions: 48 hours; for survival rate of 3T3L1 cells / cell proliferation, single agent: GX999 10-60 mM, GX008A 5-200 mM, P<0.01 vs blank control
Description: 3T3L1 cells were placed in DMEM high-glucose medium containing 10% calf serum and cultured at 37° C. and 5% CO2. When the cells reached 90% confluence, they were digested with 0.25% trypsin, passaged, and inoculated in a 96-well cell culture plate.
The logarithmic growth phase cells were taken and inoculated in a 96-well plate at a density of 5×10^3 cells/mL, with 4 replicate wells in each group. After the cells grew to about 40%-50% confluence, the fresh drug-containing medium was replaced with and they were divided into a GX999 alone group, a GX008A group, and a GX999+GX008A combination group. After culturing for 48h, MTT 20 ul (5 mg/mL) was added to each well and incubated for 4h. Then the culture medium was discarded, 150 ul DMSO was added to each well and shaken for 10 minutes, and the OD value of the optical density was detected at 490 nm with a microplate reader, and the cell survival rate was calculated according to the formula. Analysis of drug synergy:
Combination method: 10 mM GX999 in combination with GX008A (0, 5, 10, 30, 50 mM) group. According to the inhibition rates of different concentrations of drugs alone and in combination, the Calcusyn software was used to analyze and process data such as the inhibition rates of GX999 and GX008A alone at different concentrations and the inhibition rates in combination at corresponding concentrations to obtain the combination index (CI) value. According to the definition of combination index, the synergistic effect of drugs was judged, and the synergistic effect is indicated by less than 1.0, and the antagonistic effect is indicated by greater than 1.0.

[3] = tested on: 3T3-L1 preadipocytes; test: Induced differentiation of 3T3-L1 preadipocytes, Oil Red O staining of lipid droplets; type: cell-based; conditions: 10 mM each, 8 days of induced differentiation, P<0.01
Description: 2 days after the 3T3-L1 preadipocytes grew to complete confluence, the induction of differentiation began. That is, the DMEM complete medium was discarded, and replaced with DMEM complete medium containing 5 ug/ml insulin, 0.5 mM IBMX, 1 uM dexamethasone, and after 2 days, it was replaced with DMEM complete culture medium containing 5 ug/ml insulin and cultured for 2 days. Then DMEM complete culture medium was used to continue culturing for 2 days. From the first day of differentiation, the experimental group was given a culture medium containing 10 mM GX999 or 10 mM GX008A to intervene in the whole process of cell differentiation, and the control group was added with conventional inducers.
After 8 days of induced differentiation, the cells were fixed with 4% paraformaldehyde for 30 minutes, washed 3 times with balanced salt solution (PBS), incubated with oil red O staining solution for 60 minutes, the pipetted liquid was rinsed 3 times with PBS, and observed for the formation of lipid droplets under an inverted microscope and a video was taken. Isopropanol (200 ul per well) was added, and the absorbance at A490 nm was measured with a microplate reader after 5 minutes.
Based on the results of the above-mentioned combination application experiment, the drug concentration and combination concentration were selected. […]

Structure (SMILES)	combination index CI value with alloxan [1]	cell survival rate of alloxan-damaged pancreatic β-cells, single agent [1]	IC50 ([2]; 3T3L1 cells, MTT, read-out: IC50 (3T3L1 cell survival rate)) [mM]	survival rate of 3T3L1 cells / cell proliferation, single agent [2]	lipid droplet content in cells compared with the differentiation group [3]	cell survival rate / cell proliferation (alloxan cell damage model) ([1]; alloxan 4, 7, 10, 15, 20 mM, 24 hours, RINm5f cells, MTT)
NC(=O)c1ccc[n+]([C@@H]2O[C@H](COP(=O)([O-])O)[C@@H](O)[C@H]2O)c1 [GX999, Nicotinamide mononucleotide]	greater than 1.0	the cell survival rate could be significantly improved	51.7 ± 1.5	inhibited cell proliferation in a concentration-dependent manner	significantly reduced	–
O=C1NC(=O)C(=O)C(=O)N1 [alloxan, reference compound]	–	–	–	–	–	inhibited cell proliferation in a concentration-dependent manner
C[C@H](CC[C@@H](O[C@@H]1O[C@H](CO[C@@H]2O[C@H](CO)[C@@H](O)[C@H](O)[C@H]2O)[C@@H](O)[C@H](O)[C@H]1O[C@@H]1O[C@H](CO)[C@@H](O)[C@H](O)[C@H]1O)C(C)(C)O)[C@H]1CC[C@@]2(C)[C@@H]3CC=C4[C@@H](CC[C@H](O[C@@H]5O[C@H](CO[C@@H]6O[C@H](CO)[C@@H](O)[C@H](O)[C@H]6O)[C@@H](O)[C@H](O)[C@H]5O)C4(C)C)[C@]3(C)[C@H](O)C[C@]12C [GX008A, Mogroside V]	greater than 1.0	the cell survival rate could be significantly improved	–	inhibited cell proliferation in a concentration-dependent manner	significantly reduced	–
